Experimental data reported in US12590081B2, “Fused imidazole derivatives, preparation method and medicinal use thereof” (Jiangsu Hengrui Pharmaceuticals Co., Ltd., priority 2020, dated 2026).

The molecules below were run against T1, hERG potassium ion channel (Homo sapiens, UniProt Q12809) (assay: Blocking effect on hERG potassium currents, automated patch clamp in HEK293-hERG cells). Conditions: automated patch clamp (Patchliner).
T1 construct: expressed in transfected cells
Type: cell-based
Protocol: The blocking effect of hERG potassium currents by the compounds of the present disclosure was tested in a stable cell strain transfected with an hERG potassium channel using an automated patch clamp.
HEK293 cell lines were transfected with pCDNA3.1(+) from which the hERG gene had been constructed, and then stably-expressed monoclonal HEK293-hERG cell strains were selected by addition of G418. Stably-expressed HEK293-hERG cell strains were subcultured at a density of 1:4 in an MEM/EBSS medium (10% FBS, […] G418, 1% MEM non-essential amino acid solution (100×), 1% sodium pyruvate solution) and subjected to an automated patch clamp experiment within 48-72 h after the start of the culture. On the day of experiment, the cells were digested with […] pancreatin (life technologies, 12563-029), collected by centrifugation and resuspended in an extracellular fluid (140 mM NaCl, 4 mM KCl, 1 mM MgCl2, 2 mM CaCl2, 5 mMD glucose monohydrate, 10 mM HEPES, pH 7.4, 298 mOsmol) to prepare a cell suspension. The cell suspension was placed on the cell bank of the Patchliner instrument that transferred the cells to the chip (NPC-16) using a negative pressure controller. […] The currents at various concentrations of the compound and in the blank control were analyzed by data analysis software provided by HEAK EPC10 patch clamp amplifier (Nanion) and Pathlinersoftware and Pathcontrol HTsoftware. […]

T1 sequence (Q12809 whole entry): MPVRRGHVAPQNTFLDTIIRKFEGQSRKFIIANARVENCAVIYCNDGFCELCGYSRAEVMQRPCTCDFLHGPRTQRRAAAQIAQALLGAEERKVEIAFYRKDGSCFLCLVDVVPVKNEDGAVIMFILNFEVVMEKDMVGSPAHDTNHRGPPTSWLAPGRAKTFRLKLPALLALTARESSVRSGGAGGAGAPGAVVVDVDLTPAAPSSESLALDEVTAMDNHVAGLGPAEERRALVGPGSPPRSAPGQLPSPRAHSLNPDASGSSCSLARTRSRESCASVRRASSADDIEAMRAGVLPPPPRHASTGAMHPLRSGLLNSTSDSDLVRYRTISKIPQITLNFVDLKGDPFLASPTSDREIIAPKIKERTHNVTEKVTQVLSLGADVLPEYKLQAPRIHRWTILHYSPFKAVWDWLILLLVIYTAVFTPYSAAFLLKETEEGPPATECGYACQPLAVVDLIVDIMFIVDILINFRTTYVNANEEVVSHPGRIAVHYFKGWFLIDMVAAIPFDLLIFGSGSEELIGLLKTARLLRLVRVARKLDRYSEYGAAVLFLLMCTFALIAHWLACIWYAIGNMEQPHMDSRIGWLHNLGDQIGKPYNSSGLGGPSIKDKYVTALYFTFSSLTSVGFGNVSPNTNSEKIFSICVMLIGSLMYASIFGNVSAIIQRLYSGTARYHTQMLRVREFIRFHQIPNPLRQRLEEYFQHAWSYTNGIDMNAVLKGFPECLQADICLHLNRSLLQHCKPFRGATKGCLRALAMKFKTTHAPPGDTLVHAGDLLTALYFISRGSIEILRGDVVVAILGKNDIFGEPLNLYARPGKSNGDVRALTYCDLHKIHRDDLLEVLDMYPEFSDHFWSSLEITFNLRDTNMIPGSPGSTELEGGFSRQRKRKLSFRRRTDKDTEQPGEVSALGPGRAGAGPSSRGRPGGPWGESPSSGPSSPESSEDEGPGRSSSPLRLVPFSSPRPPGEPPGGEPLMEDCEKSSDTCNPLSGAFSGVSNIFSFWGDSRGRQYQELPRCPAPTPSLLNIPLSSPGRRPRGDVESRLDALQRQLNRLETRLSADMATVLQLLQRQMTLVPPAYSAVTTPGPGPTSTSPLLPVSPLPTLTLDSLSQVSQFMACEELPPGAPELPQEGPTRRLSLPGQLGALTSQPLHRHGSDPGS

| Compound | IC50 [nM] |
| --- | --- |
| C[C@]1(c2ccc(Cl)cc2F)Oc2cccc(C3=CCN(Cc4nc5ccc(C(=O)O)cc5n4C[C@@H]4CCO4)CC3)c2O1 [Example 4, 2-((4-((S)-2-(4-chloro-2-fluorophenyl)-2-methylbenzo[d][1,3]dioxol-4-yl)-3,6-dihydropyridin-1(2H)-yl)methyl)-1-(((S)-oxetan-2-yl)methyl)-1H-benzo[d]imidazole-6-carboxylic acid] | 22000 |

The molecules below were run against T2, GLP-1 receptor (Homo sapiens, UniProt P43220) (assay: Agonist activity against GLP-1 receptor, CRE-luciferase reporter (ONE-Glo) in CHO-K1/CRE-luc/GLP-1 receptor cells). Conditions: 6 h incubation, luciferase readout.
T2 construct: expressed in transfected cells
T2 sequence (P43220 24-463): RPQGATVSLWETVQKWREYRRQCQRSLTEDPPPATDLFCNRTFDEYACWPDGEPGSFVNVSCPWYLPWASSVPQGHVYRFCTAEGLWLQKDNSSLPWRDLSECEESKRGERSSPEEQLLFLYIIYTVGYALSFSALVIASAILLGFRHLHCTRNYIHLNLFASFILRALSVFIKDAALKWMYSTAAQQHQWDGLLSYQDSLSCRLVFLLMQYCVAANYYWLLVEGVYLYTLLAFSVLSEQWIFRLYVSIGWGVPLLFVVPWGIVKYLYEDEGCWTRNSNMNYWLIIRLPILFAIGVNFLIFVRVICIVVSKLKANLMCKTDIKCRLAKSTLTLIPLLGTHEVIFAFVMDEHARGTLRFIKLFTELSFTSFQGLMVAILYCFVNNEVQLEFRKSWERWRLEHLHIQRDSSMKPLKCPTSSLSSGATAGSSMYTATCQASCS
Type: cell-based
From the text: This experiment was intended to test the agonist activity of the compound molecules against the GLP-1 receptor and evaluate the in vitro activity of the molecules according to EC50. The experiment adopted a ONE-Glo™ Luciferase Assay System (Promega, E6110). Under the action of compound molecules, GLP-1R downstream signaling pathways were activated to cause elevated cAMP level. The combination of cAMP and CRE could start the transcription expression of CRE downstream luciferase genes, the luciferase could emit fluorescence when reacting with substrates thereof, and the activity of the compound for agonizing GLP-1 receptors was reflected by measuring fluorescence signals through a ONE-Glo™ reagent.
Stably-expressed CHO-K1/CRE-luc/GLP-1 receptor cell strains (self-construction of GLP-1 receptor plasmid; CRE-luc plasmid Promega E8471) was constructed. CHO-K1/CRE-luc/GLP-1 receptor cells were digested, and resuspended after centrifugation. Single cell suspension was uniformly mixed, and adjusted to a viable cell density of 2.5×10^5 cell/mL with a cell culture medium (DME/F-12+10% FBS), and the resulting solution was added to a 96-well cell culture plate at 90 μL/well (Corning, #3903). The plate was incubated in an incubator for 16 h (37° C., 5% CO2).
The compound was dissolved in DMSO to prepare a stock solution with an initial concentration of 20 mM. The starting concentration of the small molecule compound was 0.2 mM, and the compound underwent 3-fold serial dilution for a total of 10 concentration points, with DMSO at the 11th point. To another 96-well plate was added 95 μL of cell culture medium (DME/F-12+10% FBS), 5 μL of test samples with different concentrations were added to each well, followed by uniform mixing, and then 10 μL of test samples with different concentrations were added to each well, with two duplicate wells set for each sample. The plate was incubated in an incubator for 6 h (37° C., 5% CO2). The 96-well cell culture plate was taken out, and 100 μL of ONE-Glo™ reagent was added to each well, followed by incubation at room temperature for 10 min. The plate was placed in a microplate reader (EnVision 2105, PE) for determination of chemiluminescence.
Data were processed and analyzed using Microsoft Excel and Graphpad Prism 5.

| Compound | EC50 [nM] | Emax [%] |
| --- | --- | --- |
| N#Cc1ccc(COc2cccc(C3=CCN(Cc4nc5ccc(C(=O)O)cc5n4C[C@@H]4CCO4)CC3)n2)c(F)c1 [Example 1] | 0.12 | 110 |
| CC1(c2ccc(Cl)cc2F)Oc2cccc(C3=CCN(Cc4nc5ccc(C(=O)O)cc5n4C[C@@H]4CCO4)CC3)c2O1 (stereo partly drawn) [Example 2, 2-((4-(2-(4-chloro-2-fluorophenyl)-2-methylbenzo[d][1,3]dioxol-4-yl)-3,6-dihydropyridin-1(2H)-yl)methyl)-1-(((S)-oxetan-2-yl)methyl)-1H-benzo[d]imidazole-6-carboxylic acid] | 0.92 | 110 |
| CC(Oc1cccc(C2=CCN(Cc3nc4ccc(C(=O)O)cc4n3C[C@@H]3CCO3)CC2)n1)c1ccc(Cl)cc1F (stereo partly drawn) [Example 3] | 1.38 | 106 |
| C[C@]1(c2ccc(Cl)cc2F)Oc2cccc(C3=CCN(Cc4nc5ccc(C(=O)O)cc5n4C[C@@H]4CCO4)CC3)c2O1 [Example 4, 2-((4-((S)-2-(4-chloro-2-fluorophenyl)-2-methylbenzo[d][1,3]dioxol-4-yl)-3,6-dihydropyridin-1(2H)-yl)methyl)-1-(((S)-oxetan-2-yl)methyl)-1H-benzo[d]imidazole-6-carboxylic acid] | 0.12 | 104 |
| N#Cc1ccc(CSc2cccc(C3=CCN(Cc4nc5ccc(C(=O)O)cc5n4C[C@@H]4CCO4)CC3)n2)c(F)c1 [Example 5, (S)-2-((6-(4-cyano-2-fluorobenzyl)thio-3′,6′-dihydro-[2,4′-bipyridin]-1′(2′H)-yl)methyl)-1-(oxetan-2-ylmethyl)-1H-benzo[d]imidazole-6-carboxylic acid] | 1.93 | 110 |
| N#Cc1ccc(CSc2nc(C3=CCN(Cc4nc5ccc(C(=O)O)cc5n4C[C@@H]4CCO4)CC3)ccc2F)c(F)c1 [Example 6, (S)-2-((6-(4-cyano-2-fluorobenzyl)thio-5-fluoro-3′,6′-dihydro-[2,4′-bipyridin]-1′(2′H)-yl)methyl)-1-(oxetan-2-ylmethyl)-1H-benzo[d]imidazole-6-carboxylic acid] | 0.85 | 108 |
| C[C@]1(c2ccc(Cl)cc2F)Oc2cccc(C3=CCN(Cc4nc5ccc(C(=O)O)nc5n4C[C@@H]4CCO4)CC3)c2O1 [Example 7, 2-((4-((S)-2-(4-chloro-2-fluorophenyl)-2-methylbenzo[d][1,3]dioxol-4-yl)-3,6-dihydropyridin-1(2H)-yl)methyl)-3-(((S)-oxetan-2-yl)methyl)-3H-imidazo[4,5-b]pyridine-5-carboxylic acid] | 0.45 | 107 |
